According to patent US8604021B2, “Substituted arylamine compounds and methods of treatment” (priority 2005, dated 2013):
“Also recorded” adds a separate entry of the source.

Columns and labels:
5HT2C = molecular target: T1, 5HT2C (Homo sapiens, UniProt P28335); assay: Compound Binding Profiles: 5HT2C; settings: * = Estimated IC50
T1 sequence (P28335 33-458): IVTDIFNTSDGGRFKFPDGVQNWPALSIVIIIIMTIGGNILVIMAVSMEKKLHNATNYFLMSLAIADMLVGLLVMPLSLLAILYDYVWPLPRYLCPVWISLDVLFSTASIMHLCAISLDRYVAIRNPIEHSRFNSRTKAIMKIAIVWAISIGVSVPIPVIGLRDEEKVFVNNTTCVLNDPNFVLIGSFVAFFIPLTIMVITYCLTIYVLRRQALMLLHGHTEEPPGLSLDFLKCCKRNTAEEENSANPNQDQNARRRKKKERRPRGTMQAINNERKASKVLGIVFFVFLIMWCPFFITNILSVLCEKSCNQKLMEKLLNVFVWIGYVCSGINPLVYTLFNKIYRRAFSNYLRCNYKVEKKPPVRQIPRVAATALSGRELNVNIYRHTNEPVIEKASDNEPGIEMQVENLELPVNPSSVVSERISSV

[1] = Novel object recognition test; assay type: in vivo, C57Bl/6J mice; settings: for Memory index, Mean: 10 min test; for Exploration time, Diff of Means 10% DMSO vs. treatment: within Familiar; for Exploration time, Diff of Means treatment vs. 10% DMSO: within Novel
Description: Male C57Bl/6J mice from Jackson Laboratories (Bar Harbor, Me.) were used. Mice were received at 6-weeks of age. Upon receipt, mice were assigned unique identification numbers (tail marked) and were group housed in polycarbonate cages with filter tops. All animals remained housed in groups of four during the remainder of the study. All mice were acclimated to the colony room for at least two weeks prior to testing and were subsequently tested at an average age of 8 weeks of age. During the period of acclimation, mice were examined on a regular basis, handled, and weighed to assure adequate health and suitability. Mice were maintained on a 12/12 light/dark cycle with the light on at 6:00 a.m. The room temperature was maintained between 20 and 23° C. with a relative humidity maintained between 30% and 70%. Chow and water were provided ad libitum for the duration of the study. In each test, animals were randomly assigned across treatment groups.
The pH at the 10 mg/kg was around 5.5.
Rolipram, also dissolved in 10% DMSO was only administered 20 min prior to training on Day 2.
On Day 1, mice were habituated to a circular open field environment (d=18 in, h=15 cm) for one hour in cage groups of four. Each Arena was constructed out of acrylic that was painted black to block reflection. On day 2, mice were placed back into the same arena for a training trial and allowed to explore a set of two identical objects placed equidistance apart from both each other and the arena walls. Individual mice were trained for a total of 15 minutes and then placed back into their home cages. On Day 3, mice were placed back into the same arena in the presence of both the familiar (previously explored) and a novel object. The spatial positions of the familiar and novel object (i.e. left-right sides) were counterbalanced between subjects. The difference in time spent exploring each object during the test trial was used as an index of object recognition and memory retention. Each animals test trial was recorded and these tapes were observed and scored after test completion. The first 10 min of each session was scored and object recognition was computed using the formula: (Time spent with novel object*100)/(Total Time exploring both objects). Tissue Harvest
Data were analyzed by analysis of variance (ANOVA) followed by post-hoc comparisons with Fisher Tests when appropriate. An effect was considered significant if p<0.05. Data are represented as the mean and standard error to the mean.

α2 = assay: Compound Binding Profiles: α2; settings: * = Estimated IC50
CYP2D6 = CYP2D6 (Homo sapiens, UniProt P10635); assay: CYP inhibition CYP2D6
CYP2D6, sequence (P10635 whole entry): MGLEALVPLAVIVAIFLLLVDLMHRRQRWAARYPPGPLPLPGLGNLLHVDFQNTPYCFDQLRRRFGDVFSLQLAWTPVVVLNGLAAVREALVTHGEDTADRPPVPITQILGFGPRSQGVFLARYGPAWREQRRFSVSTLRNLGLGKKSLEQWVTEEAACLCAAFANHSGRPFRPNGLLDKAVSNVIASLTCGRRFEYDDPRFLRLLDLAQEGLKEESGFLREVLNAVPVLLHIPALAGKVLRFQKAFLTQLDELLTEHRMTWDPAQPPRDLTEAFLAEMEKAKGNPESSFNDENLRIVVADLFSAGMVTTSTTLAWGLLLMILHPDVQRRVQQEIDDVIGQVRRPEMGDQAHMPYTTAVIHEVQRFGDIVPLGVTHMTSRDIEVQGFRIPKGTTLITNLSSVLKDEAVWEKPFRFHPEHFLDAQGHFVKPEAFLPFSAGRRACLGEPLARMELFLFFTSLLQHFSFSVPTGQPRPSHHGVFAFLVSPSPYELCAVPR

CYP2C9 = CYP2C9 (Homo sapiens, UniProt P11712); assay: CYP inhibition CYP2C9
CYP2C9, sequence (P11712 whole entry): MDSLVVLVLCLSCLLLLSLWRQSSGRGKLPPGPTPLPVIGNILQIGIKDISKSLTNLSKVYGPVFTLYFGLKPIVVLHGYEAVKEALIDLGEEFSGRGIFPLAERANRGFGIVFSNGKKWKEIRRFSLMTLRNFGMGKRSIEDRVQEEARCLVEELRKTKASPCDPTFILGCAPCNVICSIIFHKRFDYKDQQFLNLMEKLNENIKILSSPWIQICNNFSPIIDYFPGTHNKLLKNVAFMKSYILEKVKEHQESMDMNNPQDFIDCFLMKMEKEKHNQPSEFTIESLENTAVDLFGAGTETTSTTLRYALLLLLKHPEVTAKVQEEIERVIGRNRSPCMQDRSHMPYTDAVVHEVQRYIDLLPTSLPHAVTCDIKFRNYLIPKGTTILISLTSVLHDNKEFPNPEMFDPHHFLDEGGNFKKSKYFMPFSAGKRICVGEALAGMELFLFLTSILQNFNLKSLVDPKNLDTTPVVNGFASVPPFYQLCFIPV

D4 = molecular target: T2, D4 (Homo sapiens, UniProt P21917); assay: Compound Binding Profiles: D4; settings: read-out: D4 binding class
T2 sequence (P21917 1-419): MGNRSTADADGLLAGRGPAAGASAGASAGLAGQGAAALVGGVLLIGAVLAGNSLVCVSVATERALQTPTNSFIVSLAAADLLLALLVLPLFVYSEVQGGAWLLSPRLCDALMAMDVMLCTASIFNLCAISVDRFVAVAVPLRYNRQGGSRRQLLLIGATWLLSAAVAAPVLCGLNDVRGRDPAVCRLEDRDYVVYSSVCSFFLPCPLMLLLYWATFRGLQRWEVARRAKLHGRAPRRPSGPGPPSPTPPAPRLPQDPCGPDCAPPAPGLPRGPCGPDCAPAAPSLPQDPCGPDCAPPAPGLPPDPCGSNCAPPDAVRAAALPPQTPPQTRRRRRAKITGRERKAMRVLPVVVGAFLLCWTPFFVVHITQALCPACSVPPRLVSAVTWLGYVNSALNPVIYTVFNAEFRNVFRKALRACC

D1 = D1 (Homo sapiens, UniProt P21728); assay: Compound Binding Profiles: D1; settings: read-out: D1 binding class
D1, sequence (P21728 whole entry): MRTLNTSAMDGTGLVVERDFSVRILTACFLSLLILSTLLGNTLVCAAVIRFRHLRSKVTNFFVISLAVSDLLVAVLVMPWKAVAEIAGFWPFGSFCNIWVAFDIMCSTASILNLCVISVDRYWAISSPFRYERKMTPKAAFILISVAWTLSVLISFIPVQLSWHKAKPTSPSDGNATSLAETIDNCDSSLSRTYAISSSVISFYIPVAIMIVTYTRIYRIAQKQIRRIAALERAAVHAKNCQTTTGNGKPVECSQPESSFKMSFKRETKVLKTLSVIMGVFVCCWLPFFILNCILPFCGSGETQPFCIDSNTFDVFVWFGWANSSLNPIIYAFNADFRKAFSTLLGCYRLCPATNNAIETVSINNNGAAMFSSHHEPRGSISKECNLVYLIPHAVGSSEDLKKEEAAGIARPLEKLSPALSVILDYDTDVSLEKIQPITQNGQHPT

CYP2C19 = CYP2C19 (Homo sapiens, UniProt P33261); assay: CYP inhibition CYP2C19
CYP2C19, sequence (P33261 whole entry): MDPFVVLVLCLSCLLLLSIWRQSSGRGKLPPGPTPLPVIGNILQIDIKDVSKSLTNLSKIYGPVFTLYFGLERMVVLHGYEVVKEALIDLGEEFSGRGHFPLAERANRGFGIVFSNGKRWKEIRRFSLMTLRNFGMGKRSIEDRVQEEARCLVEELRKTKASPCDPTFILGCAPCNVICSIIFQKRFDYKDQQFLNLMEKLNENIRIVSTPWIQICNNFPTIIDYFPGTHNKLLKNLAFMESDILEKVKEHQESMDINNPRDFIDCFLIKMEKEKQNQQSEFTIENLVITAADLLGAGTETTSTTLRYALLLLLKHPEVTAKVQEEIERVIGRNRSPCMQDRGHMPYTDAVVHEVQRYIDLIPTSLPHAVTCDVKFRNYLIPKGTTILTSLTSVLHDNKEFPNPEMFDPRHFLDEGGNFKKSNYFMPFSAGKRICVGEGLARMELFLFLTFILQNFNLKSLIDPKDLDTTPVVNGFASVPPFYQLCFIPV

M1 = molecular target: T3, M1 (Homo sapiens, UniProt P11229); assay: Compound Binding Profiles: M1; settings: * = Estimated IC50
T3 sequence (P11229 1-460): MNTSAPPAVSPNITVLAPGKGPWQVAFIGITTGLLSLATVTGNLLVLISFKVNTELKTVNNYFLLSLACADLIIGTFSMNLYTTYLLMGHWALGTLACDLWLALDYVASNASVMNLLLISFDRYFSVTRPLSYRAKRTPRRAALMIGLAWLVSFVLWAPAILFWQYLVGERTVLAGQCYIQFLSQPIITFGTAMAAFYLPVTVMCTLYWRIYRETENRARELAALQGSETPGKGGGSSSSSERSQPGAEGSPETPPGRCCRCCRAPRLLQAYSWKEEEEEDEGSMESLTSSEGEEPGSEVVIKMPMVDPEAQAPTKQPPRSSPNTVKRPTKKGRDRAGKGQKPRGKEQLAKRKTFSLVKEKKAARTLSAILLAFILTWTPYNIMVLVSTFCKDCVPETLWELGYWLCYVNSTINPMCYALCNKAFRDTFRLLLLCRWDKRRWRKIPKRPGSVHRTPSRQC

## COc1cc(Cl)cc(C(C)Nc2cc(N3CCNCC3)ccc2S(C)(=O)=O)c1OC.Cl (stereo not shown) [Compound A, [1-(5-Chloro-2,3-dimethoxy-phenyl)-ethyl]-(2-methanesulfonyl-5-piperazin-1-yl-phenyl)-amine hydrochloride]
5HT2C
  IC50: 3.8 µM
[1]; 1 mg/kg
  Exploration time, Diff of Means Novel vs. Familiar: 14.456
  Memory index, Mean Diff. Vehicle versus treatment (Fisher's PLSD): −4.573
  Exploration time, Diff of Means 10% DMSO vs. treatment: 0.831
  Exploration time, Diff of Means treatment vs. 10% DMSO: 8.282
[1]; 1 mg/kg i.p.
  Memory index, Mean: 61.179
[1]; 1 mg/kg, Familiar Object
  Exploration time, Mean: 24.810
[1]; 1 mg/kg, Novel Object
  Exploration time, Mean: 39.266
[1]; 3 mg/kg
  Exploration time, Diff of Means Novel vs. Familiar: 23.871
  Exploration time, Diff of Means 10% DMSO vs. treatment: 6.473
  Exploration time, Diff of Means treatment vs. 10% DMSO: 10.393
[1]; 3 mg/kg and 10 mg/kg, hydrochloride
  effect on recognition index / object recognition compared to vehicle: significantly increased the recognition index; also recorded: significant, positive effect on object recognition
[1]; 3 mg/kg i.p.
  Memory index, Mean: 68.946
[1]; 3 mg/kg, Familiar Object
  Exploration time, Mean: 17.506
[1]; 3 mg/kg, Novel Object
  Exploration time, Mean: 41.377
[1]; 10 mg/kg
  Exploration time, Diff of Means Novel vs. Familiar: 18.878
  Memory index, Mean Diff. Vehicle versus treatment (Fisher's PLSD): −9.784
  Exploration time, Diff of Means 10% DMSO vs. treatment: 7.826
  Exploration time, Diff of Means treatment vs. 10% DMSO: 4.047
[1]; 10 mg/kg i.p.
  Memory index, Mean: 66.391
[1]; 10 mg/kg, Familiar Object
  Exploration time, Mean: 16.153
[1]; 10 mg/kg, Novel Object
  Exploration time, Mean: 35.031
[1]; 1, 3, and 10 mg/kg
  time exploring novel object versus familiar object: spent more time exploring novel object than the familiar object
α2
  IC50: 23 µM
CYP2D6
  IC50: 7.81 µM
CYP2C9
  IC50: > 7.5 µM
Stability in HLM
  stability (HLM): > 90 min
D4
  Ki: 0.1 to 1 µM
D1
  Ki: 0.1 to 1 µM
CYP2C19
  IC50: > 7.5 µM
M1
  IC50: 3.4 µM
